Source: patent publication US4524068A, “Cyclodextrin inclusion complex of piperonyl butoxide” (priority 1982, dated 1985)
≈ marks a conversion by molar mass, not a printed value.

How the values were obtained:
Sitophilus granarius [1] = experiment: 24 hours' mortality of tetrametrin and cinerin with synergist (Example 10); conditions: for mortality at 10 mg/disk: Sitophilus granarius, 24 h, read-out: 24 hours' mortality, Paralitical and killed insects
Experimental: (§1) As insecticide tetrametrin and cinerin I are used. The insecticidal effect is tested on 2-4 weeks' old Sitophilus granarius (Corn-Weevil) imago.
(§2) Piperonyl butoxide and the complex of piperonyl butoxide and cyclodextrin are applied as described in Example 9. The ratio of pyrethroide and synergistic agent amounts to 1:4 in all cases. The efficiency of insecticidal effect is proportional to the value of the 24 hours' mortality (killing effect).

Sitophilus granarius [2] = experiment: Knock-down effect of tetrametrin and cinerin I with synergist (Example 10); assay type: in vivo, Sitophilus granarius (Corn-Weevil); conditions: pyrethroide:synergistic agent 1:4
Experimental: as §1, §2

[3] = test system: Drosophila melanogaster Meigen (vinegar midge); experiment: 24 hours' mortality of tetrametrin on midges pre-fed with piperonyl butoxide or its complex (Example 8); assay type: in vivo; conditions: pre-fed with synergist
Experimental: The emulsion and suspension also contain 5% of sucrose.
Next day the 24 hours' mortality is determined.

physchem = conditions: water
[4] = cited from earlier work

SMILES | mortality at 10 mg/disk (Sitophilus granarius [1]) [%] | Knock-down effect (Sitophilus granarius [2]; 90 minutes) | Knock-down effect (Sitophilus granarius [2]; 170 minutes) | Knock-down effect (Sitophilus granarius [2]; 210 minutes) | Knock-down effect (Sitophilus granarius [2]; 300 minutes) | Mortality (24 hours mortality; killing effect) ([3]; tetrametrin dose 0.078 mg/disk) [%] | Mortality (24 hours mortality; killing effect) ([3]; tetrametrin dose 0.156 mg/disk) [%] | Mortality (24 hours mortality; killing effect) ([3]; tetrametrin dose 0.313 mg/disk) [%] | Mortality (24 hours mortality; killing effect) ([3]; tetrametrin dose 0.625 mg/disk) [%] | Mortality (24 hours mortality; killing effect) ([3]; tetrametrin dose 1.250 mg/disk) [%] | Mortality (24 hours mortality; killing effect) ([3]; tetrametrin dose 5.000 mg/disk) [%] | solubility at 1 h (physchem) [µg/mL] | solubility in organic solvents ([4]; organic solvents) | solubility in water ([4]; water) | 24 hours' mortality; Paralitical and killed insects (Sitophilus granarius [1]; pyrethroide dose 1.250 mg/disk, pyrethroid:synergist 1:4) [%]
CC(C)=CC1C(C(=O)OCN2C(=O)C3=C(CCCC3)C2=O)C1(C)C (centres unmarked) [tetrametrin] | 41 | 0 | 9 | 9 | 6 |  |  |  |  |  |  |  |  |  | 
CCCCOCCOCCOCc1cc2c(cc1CCC)OCO2 [piperonyl butoxide, 5-{[2-(2-butoxy-ethoxy)-ethoxy]-methyl}-6-propyl-1,3-benzodioxole] |  |  |  |  |  | 0 | 8 | 34 | 48 | 100 | 100 | 66 (≈ 195 µM) | soluble in organic solvents | substantially insoluble in water | 
C/C=C\CC1=C(C)[C@@H](OC(=O)[C@@H]2[C@@H](C=C(C)C)C2(C)C)CC1=O [cinerin] | 31 | 6 | 9 | 8 | 2 |  |  |  |  |  |  |  |  |  | 0
